Results taken from article PMC5562305, “Impact of novel palmitoylated prolactin-releasing peptide analogs on metabolic changes in mice with diet-induced obesity” (PLoS ONE, 2017).
Starred links: 1 amine or outer side, 2 acyl side, 3 side chain; linkers in the order of their positions; H or OH if unused. Residues, ends and D or L forms follow the SMILES beside them. Groups on a side chain read outwards from the residue. *: point of attachment. TTDA(Palmitoyl) = CCCCCCCCCCCCCCCC(=O)NCCCOCCOCCOCCCN*; γGlu = O=C(O)[C@H](CCC(=O)[*:2])N[*:1]; Palmitoyl = CCCCCCCCCCCCCCCC(=O)*; Suc = O=C(CCC(=O)[*:2])[*:1]

Target: T1, human NPFF2 (Homo sapiens, UniProt Q9Y5X5)
T1 construct: purchased Perkin Elmer; host or cells: CHO-K1 cell membranes
Experiment: Competitive binding of 125I-1DMe to human NPFF2 receptor membranes
Settings: for % binding human PrRP31 (NPFF2): Ki relative to human PrRP31 = 100
Method: CHO-K1 cells expressing the GPR10 receptor (Thermo Fisher Scientific Inc., Waltham, MA, USA) were grown according to the manufacturer's instructions. Saturation and competitive binding experiments were performed according to the methods of Motulsky and Neubig. […] The experiments were performed on plated cells that were incubated for 60 min at 25°C. Non-specific binding was determined using 10^−5 M PrRP31. The binding assays involving human NPFF2 receptor membranes obtained from Perkin Elmer were performed as described in [18].
Data are presented as the means ± SEM. The competitive binding curves were plotted using GraphPad software (San Diego, CA, USA), and the best fits were compared for single-binding-site models (IC50 values were obtained from nonlinear regression analysis). Inhibition constants (Ki) were calculated from the IC50 values using the Cheng-Prusoff equation [23]. The concentration of the radioligand was 0.1 nM for cell membranes of CHO-K1 cells overexpressing NPFF2 and 0.03 nM for CHO-K1 cells overexpressing GPR10.

[1] = average of the single experiments

T1 sequence (Q9Y5X5 whole entry): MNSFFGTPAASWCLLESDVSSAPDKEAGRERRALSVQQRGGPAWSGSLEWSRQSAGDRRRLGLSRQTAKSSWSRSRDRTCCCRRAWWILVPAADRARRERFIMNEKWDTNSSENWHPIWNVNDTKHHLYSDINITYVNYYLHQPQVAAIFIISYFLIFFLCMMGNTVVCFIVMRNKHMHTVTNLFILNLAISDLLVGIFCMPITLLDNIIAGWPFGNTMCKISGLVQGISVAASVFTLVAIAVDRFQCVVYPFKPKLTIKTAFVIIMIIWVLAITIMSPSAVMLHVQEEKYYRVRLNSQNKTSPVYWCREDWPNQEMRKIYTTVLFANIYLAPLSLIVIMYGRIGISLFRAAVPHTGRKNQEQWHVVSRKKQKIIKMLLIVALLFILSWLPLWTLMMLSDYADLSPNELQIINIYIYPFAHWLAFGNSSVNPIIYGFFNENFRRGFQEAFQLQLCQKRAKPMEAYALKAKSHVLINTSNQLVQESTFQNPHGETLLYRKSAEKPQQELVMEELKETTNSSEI

CCCCCCCCCCCCCCCC(=O)N[C@@H](CCC(=O)NCCCC[C@H](NC(=O)[C@@H](NC(=O)[C@H](CCC(=O)O)NC(=O)[C@H](CCSC)NC(=O)[C@H](CO)NC(=O)[C@H](Cc1c[nH]cn1)NC(=O)[C@H](CCCNC(=N)N)NC(=O)[C@H](Cc1c[nH]cn1)NC(=O)[C@@H](NC(=O)[C@H](CCCNC(=N)N)NC(=O)[C@@H](N)CO)[C@@H](C)O)[C@@H](C)CC)C(=O)N[C@H](C(=O)N1CCC[C@H]1C(=O)N[C@@H](CC(=O)O)C(=O)N[C@H](C(=O)N[C@@H](CC(N)=O)C(=O)N1CCC[C@H]1C(=O)N[C@@H](C)C(=O)N[C@@H](Cc1c[nH]c2ccccc12)C(=O)N[C@@H](Cc1ccc(O)cc1)C(=O)N[C@@H](C)C(=O)N[C@@H](CO)C(=O)N[C@@H](CCCNC(=N)N)C(=O)NCC(=O)N[C@H](C(=O)N[C@@H](CCCNC(=N)N)C(=O)N1CCC[C@H]1C(=O)N[C@H](C(=O)NCC(=O)N[C@@H](CCCNC(=N)N)C(=O)N[C@@H](Cc1ccccc1)C(N)=O)C(C)C)[C@@H](C)CC)[C@@H](C)CC)[C@@H](C)O)C(=O)O [analog 1] (H-SRTHRHSMEIK([γGlu-Palmitoyl])TPDINPAWYASRGIRPVGRF-NH2; N-terminus assumed)
% binding human PrRP31 (NPFF2): 128%
Ki (membranes of CHO-K1 cells overexpressing NPFF2, 0.1 nM radioligand, Cheng-Prusoff, mean ± SEM, SEM): 39.1 ± 23.1 nM

CCCCCCCCCCCCCCCC(=O)NCCCOCCOCCOCCCNC(=O)CCC(=O)NCCCC[C@H](NC(=O)[C@@H](NC(=O)[C@H](CCC(=O)O)NC(=O)[C@H](CCSC)NC(=O)[C@H](CO)NC(=O)[C@H](Cc1c[nH]cn1)NC(=O)[C@H](CCCNC(=N)N)NC(=O)[C@H](Cc1c[nH]cn1)NC(=O)[C@@H](NC(=O)[C@H](CCCNC(=N)N)NC(=O)[C@@H](N)CO)[C@@H](C)O)[C@@H](C)CC)C(=O)N[C@H](C(=O)N1CCC[C@H]1C(=O)N[C@@H](CC(=O)O)C(=O)N[C@H](C(=O)N[C@@H](CC(N)=O)C(=O)N1CCC[C@H]1C(=O)N[C@@H](C)C(=O)N[C@@H](Cc1c[nH]c2ccccc12)C(=O)N[C@@H](Cc1ccc(O)cc1)C(=O)N[C@@H](C)C(=O)N[C@@H](CO)C(=O)N[C@@H](CCCNC(=N)N)C(=O)NCC(=O)N[C@H](C(=O)N[C@@H](CCCNC(=N)N)C(=O)N1CCC[C@H]1C(=O)N[C@H](C(=O)NCC(=O)N[C@@H](CCCNC(=N)N)C(=O)N[C@@H](Cc1ccccc1)C(N)=O)C(C)C)[C@@H](C)CC)[C@@H](C)CC)[C@@H](C)O [analog 2] (H-SRTHRHSMEIK([Suc-TTDA(Palmitoyl)])TPDINPAWYASRGIRPVGRF-NH2; N-terminus assumed)
% binding human PrRP31 (NPFF2): 761%
Ki [1]: 6.57 nM

CCCCCCCCCCCCCCCC(=O)NCCCOCCOCCOCCCNC(=O)CCC(=O)NCCCC[C@H](NC(=O)[C@@H](NC(=O)[C@H](CCC(=O)O)NC(=O)[C@H](CCSC)NC(=O)[C@H](CO)NC(=O)[C@H](Cc1c[nH]cn1)NC(=O)[C@H](CCCNC(=N)N)NC(=O)[C@H](Cc1c[nH]cn1)NC(=O)[C@@H](NC(=O)[C@H](CCCNC(=N)N)NC(=O)[C@H](CO)NC(=O)CCC(=O)NCCCOCCOCCOCCCNC(=O)CCCCCCCCCCCCCCC)[C@@H](C)O)[C@@H](C)CC)C(=O)N[C@H](C(=O)N1CCC[C@H]1C(=O)N[C@@H](CC(=O)O)C(=O)N[C@H](C(=O)N[C@@H](CC(N)=O)C(=O)N1CCC[C@H]1C(=O)N[C@@H](C)C(=O)N[C@@H](Cc1c[nH]c2ccccc12)C(=O)N[C@@H](Cc1ccc(O)cc1)C(=O)N[C@@H](C)C(=O)N[C@@H](CO)C(=O)N[C@@H](CCCNC(=N)N)C(=O)NCC(=O)N[C@H](C(=O)N[C@@H](CCCNC(=N)N)C(=O)N1CCC[C@H]1C(=O)N[C@H](C(=O)NCC(=O)N[C@@H](CCCNC(=N)N)C(=O)N[C@@H](Cc1ccccc1)C(N)=O)C(C)C)[C@@H](C)CC)[C@@H](C)CC)[C@@H](C)O [analog 3] ({TTDA(Palmitoyl)-Suc}-SRTHRHSMEIK([Suc-TTDA(Palmitoyl)])TPDINPAWYASRGIRPVGRF-NH2)
% binding human PrRP31 (NPFF2): 580%
Ki [1]: 8.63 nM
